# From patent US20240247253A1, “PRODUCTION METHOD OF POLYPEPTIDE, TAG, EXPRESSION VECTOR, EVALUATION METHOD OF POLYPEPTIDE, PRODUCTION METHOD OF NUCLEIC ACID DISPLAY LIBRARY, AND SCREENING METHOD” (FUJIFILM Corporation, priority 2021, published 2024)
# System: cell-free peptide synthesis system derived from Escherichia coli
# Test: Cell-free biosynthesis of the integrin binding peptide fusion protein with tag, reaction time 10 minutes, ELISA
# Format: biochemical
# Settings: for Biosynthesis amount of fusion protein: relative value, control without tag = 1, reaction time 10 minutes, fusion protein SEQ ID NO: 5, SKIK encoded by SEQ ID NO: 110
# Experimental: The cell-free biosynthesis of the polypeptide was carried out in a translation solution containing a template DNA, PUREfrex 2.0 (GeneFrontier, PF201-0.25-5), and Aminoacyl tRNA (1). 1.25 μL (62.5 ng) of the template DNA prepared to 50 ng/μL, 2.5 μL of PUREfrex 2.0 Solution I, 0.25 μL of Solution II, 0.5 μL of Solution III, and 0.5 μL of Aminoacyl tRNA (1) were mixed and mixture was subjected to a reaction at 37° ° C. for 1 hour.
# The amount of the biosynthesized polypeptide was measured by ELISA. 50 ng of Recombinant Human Integrin αVβ3 (R&D systems, 3050-AV-050) was immobilized in each well of a 96-well plate and blocked with Blocker Casein in PBS (Thermo, 37528), and then a cell-free biosynthesis solution diluted with Can Get Signal Immunoreaction Enhancer Solution I (TOYOBO, NKB-101) containing 5 mmol/L MgCl2 was added thereto, and the mixture was subjected to a reaction at room temperature for 3 hours. After washing with 5 mmol/L MgCl2/0.05% Tween 20-containing phosphate buffered saline (PBS), an anti-Myc antibody (Cell Signaling, 14038S) diluted with Can Get Signal Immunoreaction Enhancer Solution II (TOYOBO, NKB-101) was added thereto, and the mixture was subjected to a reaction at room temperature for 2 hours. After washing with PBS containing 5 mmol/L MgCl2/0.05% Tween 20, Super Signal ELISA Femto Substrate (Thermo, 37075) was added thereto, and the luminescence was measured. The amount of the fusion protein in the cell-free biosynthesis solution was calculated based on a calibration curve created from the fusion protein having a known concentration. The luminescence measurement was performed twice, and the average value of the amounts of the fusion protein was calculated. Table 2-1 and Table 2-2 show relative values of the biosynthesis amounts of respective fusion proteins in a case where the amount of the fusion protein of the control example was set to the reference value 1.
# As a comparative control, a SKIK tag represented by SEQ ID NO: 107 was selected. The polypeptide to be biosynthesized is the fusion protein containing the integrin binding peptide, as in Example 1.
# Using a template DNA including DNA sequences (SEQ ID NOs: 73 to 98) encoding VKKX tags represented by SEQ ID NOs: 27 to 52 produced in Example 1, and a DNA sequence (SEQ ID NO: 110) encoding a SKIK tag represented by SEQ ID NO: 107 produced in Example 2, the biosynthesis reaction was performed in the same manner as in Example 1 by setting the reaction time to 10 minutes. In the same manner in Example 1, the fusion protein was expressed by the cell-free peptide synthesis system and quantified by ELISA. The measurement was performed twice, and the average value of the amounts of the fusion protein was calculated. […] As control example used in Example 1, the control example of the reference value 1 has a form in which the base sequence (SEQ ID NO: 6) encoding the fusion protein is arranged immediately after the start codon ATG.
substance,measurement,setting,value
"SEQ ID NO: 107: tag consisting of an amino acid sequence of SKIK, disclosed in WO2016/204198A; comparative control (SKIK Tag) [reference compound]",Biosynthesis amount of fusion protein,,1.27
same,increase rate of expression level of the fusion protein,"text of Example 3, incubation time of biosynthesis reaction 10 minutes",1.3 times
"SEQ ID NO: 27: VKKX tag, amino acid sequence VKKTKT (VKKX Tag)",Biosynthesis amount of fusion protein,,12.81
